# Experimental data: ChEMBL document CHEMBL1142857, “A new class of high affinity thyromimetics containing a phenyl-naphthylene core” (Bioorg Med Chem Lett, 2005)
# pIC50: −log10 of the molar value.
# Tests used:
# [1] = molecular target: T1, Thyroid hormone receptor alpha (Homo sapiens, UniProt P10827); assay: Inhibitory concentration against cloned human thyroid hormone receptor alpha 1
# T1 sequence (P10827 whole entry): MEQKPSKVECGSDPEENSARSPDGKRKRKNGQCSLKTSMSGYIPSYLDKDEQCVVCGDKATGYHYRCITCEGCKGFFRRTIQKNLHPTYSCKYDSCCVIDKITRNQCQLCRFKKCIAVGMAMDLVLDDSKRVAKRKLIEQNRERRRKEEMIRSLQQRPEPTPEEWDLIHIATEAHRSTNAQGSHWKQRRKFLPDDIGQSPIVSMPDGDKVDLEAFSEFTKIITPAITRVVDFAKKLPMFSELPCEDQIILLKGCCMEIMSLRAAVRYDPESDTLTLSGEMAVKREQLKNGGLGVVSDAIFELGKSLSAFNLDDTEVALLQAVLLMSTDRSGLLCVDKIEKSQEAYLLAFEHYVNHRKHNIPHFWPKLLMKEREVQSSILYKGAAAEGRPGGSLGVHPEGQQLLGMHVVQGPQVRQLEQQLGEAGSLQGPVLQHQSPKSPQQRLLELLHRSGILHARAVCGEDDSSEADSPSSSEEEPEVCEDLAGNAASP
# [2] = molecular target: T2, Thyroid hormone receptor beta (Homo sapiens, UniProt P10828)
# T2 sequence (P10828 whole entry): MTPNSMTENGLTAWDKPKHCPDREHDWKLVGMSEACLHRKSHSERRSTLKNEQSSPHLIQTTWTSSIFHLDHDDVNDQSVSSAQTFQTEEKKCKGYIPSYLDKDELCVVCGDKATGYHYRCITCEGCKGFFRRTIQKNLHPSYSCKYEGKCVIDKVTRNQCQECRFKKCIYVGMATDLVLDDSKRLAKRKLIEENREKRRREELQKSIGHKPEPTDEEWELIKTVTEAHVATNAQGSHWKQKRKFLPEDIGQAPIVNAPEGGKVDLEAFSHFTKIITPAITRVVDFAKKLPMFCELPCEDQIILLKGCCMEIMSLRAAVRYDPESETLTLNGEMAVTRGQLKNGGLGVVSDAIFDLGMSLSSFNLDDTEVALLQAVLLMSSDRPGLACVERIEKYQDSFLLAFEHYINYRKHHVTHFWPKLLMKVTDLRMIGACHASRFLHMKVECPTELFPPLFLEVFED
# Description: Inhibitory concentration against cloned human thyroid hormone receptor beta 1
# [3] = molecular target: T1, Thyroid hormone receptor alpha
SMILES,pIC50 [1],pIC50 [2],pIC50 [3]
O=C(O)Nc1cc(Cl)c(-c2cccc3c(-c4ccccc4)c(O)ccc23)c(Cl)c1,,7.54,6.90
COc1ccc2c(-c3c(Cl)cc(NC(=O)CC(=O)O)cc3Cl)cccc2c1C(C)C,,9.52,7.85
O=C(O)C(=O)Nc1cc(Cl)c(-c2cccc3c(Br)c(O)ccc23)c(Cl)c1,,9.52,8.27
O=C(O)Cc1cc(Cl)c(Oc2ccc(O)c(Br)c2)c(Cl)c1,,8.05,6.96
O=C(O)CCC(=O)Nc1cc(Cl)c(-c2cccc3c(Br)c(O)ccc23)c(Cl)c1,,7.66,7.21
O=C(O)CC(=O)Nc1cc(Cl)c(-c2cccc3c(Br)c(O)ccc23)c(Cl)c1,,9.52,8.37

# Continued, values first:
pIC50 [1],pIC50 [2],pIC50 [3],SMILES
5.81,6.26,,O=C(O)Cc1cc(Cl)c(-c2cccc3cc(O)ccc23)c(Cl)c1
,5.67,5.44,O=C(O)Cc1cc(Cl)c(Oc2ccc(O)cc2)c(Cl)c1
,8.14,7.32,Cc1c(O)ccc2c(-c3c(Cl)cc(NC(=O)O)cc3Cl)cccc12
,8.74,7.72,O=C(O)CNc1cc(Cl)c(-c2cccc3c(Br)c(O)ccc23)c(Cl)c1
,7.89,7.00,O=C(O)Cc1cc(Cl)c(-c2cccc3c(Br)c(O)ccc23)c(Cl)c1
,8.74,7.89,O=C(O)CCNc1cc(Cl)c(-c2cccc3c(Br)c(O)ccc23)c(Cl)c1
